Source: US11518764B2, “Substituted heteroaryls as inhibitors of the BCL6 BTB domain protein-protein interaction” (Ontario Institute for Cancer Research (OICR), priority 2018, dated 2022)
Like-named read-outs stand apart in the source and are kept apart here.

Columns and labels:
BCL6 BTB domain = BCL6 BTB domain (Homo sapiens (Human), UniProt P41182); assay: Surface plasmon resonance (SPR) assay; format: binding; conditions: BCL6 BTB domain captured on SA chip, single cycle kinetics
[1] = test system: BCL6 reporter construct (3xBCL6-TK-Luc) in SuDHL4 cells; assay: Cell-based luciferase assay
Method in brief: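 SuDHL4 cells stably carrying a 3×BCL6-site TK-promoter firefly luciferase reporter, seeded at 15,000 cells/well, were dosed over a 10-point range (top 10 uM) and grown two days at 37 °C, 5% CO2. Luminescence then read after adding neolite reagent at room temperature.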

Karpas422 cells = assay: Tumor cell growth inhibition assay; format: cell-based
Method in brief: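 Growth inhibition was measured by ATPlite luminescence after six days of culture at 37° C. in 5% CO2. Karpas422 cells were seeded at 2,000 per well in Alpha-MEM plus 10% FBS. Compounds were given as a 10-point concentration series with a highest dose of 5 uM.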

[2] = Homo sapiens, SU-DHL-4, 48 h, read-out: Luciferase-Assay EC50, uM), SuDHL4-3xBCL6-TK-Luc cells, two days, high dose 10 uM
[3] = Homo sapiens, KARPAS-422, 144 h, read-out: Tumor Growth Inhibition in Karpas-422 (IC50, uM), Karpas422 cells, six days, ATPlite
[4] = read-out: Luciferase-Assay EC50, SuDHL4-3xBCL6-TK-Luc cells, two days, high dose 10 uM
[5] = read-out: Tumor Growth Inhibition in Karpas-422 (IC50), Karpas422 cells, six days, ATPlite

Row | SMILES | Kd (BCL6 BTB domain) | EC50 [1, 2] | IC50 (Karpas422 cells; [3]) | EC50 [1, 4] | IC50 (Karpas422 cells; [5])
1 | Cn1cnc2c(c(-c3cc(Cl)c(O)c(C(N)=O)c3)cn2CC(=O)Nc2cc(N3CCN4CCOCC4C3)ncc2Cl)c1=O (stereo not drawn) [Compound I-75] | 8 nM | 0.132 µM | 0.099 µM |  | 
2 | CO[C@@H](C)CN1CCN(c2cc(NC(=O)Cn3cc(-c4cc(C(N)=O)c(O)c(F)c4F)c4c(=O)n(C)cnc43)c(Cl)c(F)n2)[C@@H](C)C1 [Compound I-462] | 50.3 nM | 0.184 µM | 0.289 µM |  | 
3 | Cn1cnc2c(c(-c3cc(Cl)c(O)c(C(N)=O)c3)cn2CC(=O)Nc2cc(N3CCCC3)nc(F)c2Cl)c1=O [Compound I-418] | 22.1 nM | 0.663 µM | 0.303 µM |  | 
4 | C[C@H]1CN(CC2CC2)CCN1c1cc(NC(=O)Cn2cc(-c3cc(Cl)c(O)c(C(N)=O)c3)c3c(=O)n(C)cnc32)c(Cl)cn1 [Compound I-301] | 19.6 nM | 0.21 µM | 0.252 µM |  | 
5 | COc1ccc(Cl)c(NC(=O)Cn2cc(-c3cc(Cl)c(O)c(C(N)=O)c3)c3c(=O)n(C)cnc32)c1 [Compound I-398] | 82.7 nM | 2.6 µM | 1.3 µM |  | 
6 | COc1ncc(Cl)c(NC(=O)Cn2cc(-c3cc(C(N)=O)c(O)c(F)c3F)c3c(=O)n(C)c(C)nc32)c1F [Compound I-381] | 240 nM | 10 µM | 10 µM |  | 
7 | C[C@H]1COCCN1c1cc(NC(=O)Cn2cc(-c3cc(F)c(O)c(C(N)=O)c3)c3c(=O)n(C)cnc32)c(Cl)cn1 [Compound I-157] | 6.1 nM | 0.18 µM | 0.148 µM |  | 
8 | Cn1cnc2c(c(-c3cc(Cl)c(O)c(C(N)=O)c3)cn2CC(=O)Nc2cc(N3CCC4(CCOC4)C3)ncc2Cl)c1=O (stereo not drawn) [Compound I-76] | 12 nM | 0.155 µM | 0.112 µM |  | 
9 | Cn1cnc2c(c(-c3cc(Cl)c(O)c(C(N)=O)c3)cn2CC(=O)Nc2cc(N3C[C@H]4CCO[C@H]4C3)ncc2Cl)c1=O [Compound I-74] | 2 nM | 2.3 µM | 0.123 µM |  | 
10 | CN1CCc2cc(NC(=O)Cn3cc(-c4cc(Cl)c(O)c(C(N)=O)c4)c4c(=O)n(C)cnc43)c(Cl)cc21 [Compound I-183] | 221 nM | 3.91 µM | 10 µM |  | 
11 | COCCN1CCN(c2cc(NC(=O)Cn3cc(-c4cc(C(N)=O)c(O)c5c4OCO5)c4c(=O)n(C)cnc43)c(Cl)c(F)n2)[C@@H](C)C1 [Compound I-375] | 1.31 nM | 0.0114 µM | 0.0256 µM |  | 
12 | CN1CCC2(C1)CN(c1cc(NC(=O)Cn3cc(-c4cc(Cl)c(O)c(C(N)=O)c4)c4c(=O)n(C)cnc43)c(Cl)cn1)CCO2 (stereo not drawn) [Compound I-133] | 30 nM | 0.137 µM | 0.199 µM |  | 
13 | Cn1ccc2c(c(-c3cc(Cl)c(O)c(C(N)=O)c3)cn2CC(=O)Nc2cc(N3CCOCC3)ncc2Cl)c1=O [Compound I-141] | 265 nM | 1.83 µM | 1.02 µM |  | 
14 | Cn1cnc2c(c(-c3cc(F)c(O)c(C(N)=O)c3)cn2CC(=O)Nc2cc(N3C4CCC3CN(CC(F)(F)F)C4)ncc2Cl)c1=O [Compound I-467] | 175 nM | 1.23 µM | 0.496 µM |  | 
15 | CCN1CCN(c2cc(NC(=O)Cn3cc(-c4cc(F)c(O)c(C(N)=O)c4)c4c(=O)n(C)cnc43)c(Cl)cn2)[C@@H](C)C1 [Compound I-390] | 6.18 nM | 0.0677 µM | 0.0483 µM |  | 
16 | Cn1cnc2c(c(-c3cc(F)c(O)c(C(N)=O)c3)cn2CC(=O)Nc2cc(N3C4CCC3COC4)ncc2Cl)c1=O [Compound I-436] | 14.1 nM | 0.803 µM | 0.401 µM |  | 
17 | C[C@H]1CN(C2CCC2)CCN1c1cc(NC(=O)Cn2cc(-c3cc(C(N)=O)c(O)c(F)c3F)c3c(=O)n(C)cnc32)c(Cl)cn1 [Compound I-359] | 42.2 nM | 0.521 µM | 1.34 µM |  | 
18 | C[C@H]1CN(C2CC2)CCN1c1cc(NC(=O)Cn2cc(-c3cc(Cl)c(O)c(C(N)=O)c3)c3c(=O)n(C)cnc32)c(Cl)cn1 [Compound I-296] | 33.4 nM | 0.271 µM | 0.209 µM |  | 
19 | CN1CCC2(C1)CN(c1cc(NC(=O)Cn3cc(-c4cc(Cl)c(O)c(C(N)=O)c4)c4c(=O)n(C)cnc43)c(Cl)cn1)C2 [Compound I-479] | 16.2 nM | 1.43 µM | 0.778 µM |  | 
20 | CN1CC2(CCN(c3cc(NC(=O)Cn4cc(-c5cc(C(N)=O)c(O)c(F)c5F)c5c(=O)n(C)cnc54)c(Cl)cn3)C2)C1 [Compound I-483] | 128 nM | 10 µM | 10 µM |  | 
21 | C[C@H]1CN(C)CCN1c1cc(NC(=O)Cn2cc(-c3cc(Cl)c(O)c(C(N)=O)c3)c3c(=O)n(C)c(-c4ccccc4)nc32)c(Cl)cn1 [Compound I-260, (S)-3-chloro-5-(7-(2-((5-chloro-2-(2,4-dimethylpiperazin-1-yl)pyridin-4-yl)amino)-2-oxoethyl)-3-methyl-4-oxo-2-phenyl-4,7-dihydro-3H-pyrrolo[2,3-d]pyrimidin-5-yl)-2-hydroxybenzamide] | 58.8 nM | 10 µM | 0.238 µM |  | 
22 | C[C@H]1COCCN1c1cc(NC(=O)Cn2cc(-c3cc(Cl)c(O)c(C(N)=O)c3)c3c(=O)n(C)ccc32)c(Cl)cn1 [Compound I-138] | 178 nM | 1.74 µM | 1.72 µM |  | 
23 | COc1c(O)c(C(N)=O)cc(-c2cn(CC(=O)Nc3cc(N4CCOCC4)ncc3Cl)c3ncn(C)c(=O)c23)c1F [Compound I-171] | 99.7 nM | 1.2 µM | 1.04 µM |  | 
24 | Cn1cnc2c(c(-c3cc(Cl)c(O)c(C(N)=O)c3)cn2CC(=O)Nc2cc(N3CCN4C(=O)OCC4C3)ncc2Cl)c1=O (stereo not drawn) [Compound I-237] | 17.6 nM | 1.04 µM | 1.25 µM |  | 
25 | C[C@H]1CN(CCO)CCN1c1cc(NC(=O)Cn2cc(-c3cc(C(N)=O)c(O)c(F)c3F)c3c(=O)n(C)cnc32)c(Cl)cn1 [Compound I-452, (S)-5-(7-(2-((5-chloro-2-(4-(2-hydroxyethyl)-2-methylpiperazin-1-yl)pyridin-4-yl)amino)-2-oxoethyl)-3-methyl-4-oxo-4,7-dihydro-3H-pyrrolo[2,3-d]pyrimidin-5-yl)-3,4-difluoro-2-hydroxybenzamide] | 13.6 nM | 2.6 µM | 1.52 µM |  | 
26 | Cc1cc(-c2cn(CC(=O)Nc3cc(N4CCOCC4)ncc3Cl)c3ncn(C)c(=O)c23)cc(C(N)=O)c1O [Compound I-4, 5-(7-(2-((5-chloro-2-morpholinopyridin-4-yl)amino)-2-oxoethyl)-3-methyl-4-oxo-4,7-dihydro-3H-pyrrolo[2,3-d]pyrimidin-5-yl)-2-hydroxy-3-methylbenzamide] | 279 nM | 1.8 µM | 0.525 µM |  | 
27 | CC(C)[C@H]1CN(c2cc(NC(=O)Cn3cc(-c4cc(Cl)c(O)c(C(N)=O)c4)c4c(=O)n(C)cnc43)c(Cl)cn2)CCO1 [Compound I-204] | 35.7 nM | 0.251 µM | 0.146 µM |  | 
28 | Cn1cnc2c(c(-c3cc(Cl)c(O)c(C(N)=O)c3)cn2CC(=O)Nc2cc(N3CCOC(C(F)(F)F)C3)ncc2Cl)c1=O (stereo not drawn) [Compound I-256] | 211 nM |  |  | 0.509 µM | 0.274 µM
29 | Cn1cnc2c(c(-c3cc(Cl)c(O)c(C(N)=O)c3)cn2CC(=O)Nc2cc(N3CCOC(C(F)(F)F)C3)ncc2Cl)c1=O (stereo not drawn) [Compound I-69] | 72 nM |  |  | 0.269 µM | 0.22 µM
30 | Cn1cnc2c(c(-c3cc(Cl)c(O)c(C(N)=O)c3)cn2CC(=O)Nc2cc(N3CCOC(C(F)(F)F)C3)ncc2Cl)c1=O (stereo not drawn) [Compound I-258] | 100 nM |  |  | 0.549 µM | 0.491 µM
